The target of the assay is bovine serum albumin (BSA) (Bos taurus, UniProt P02769). The assay is described as follows: Fluorescence quenching of BSA by peptides L1–3. The following applies: for Stern–Volmer constant Ksv / logKb: BSA 1.0 µM, phosphate buffer; for Stern–Volmer constant Ksv: peptide 0.25–2.0 µM, λex 280 nm; for logKb: double log regression; for quenching rate constant kq: from Ksv with τ0 10^−8 s assumed. As for the experimental part: Fluorescence spectroscopy was carried out to characterize the mechanism of the interaction between three plasma proteins, BSA, AAG, and GGF, with the studied peptides. The fluorescence spectra of protein were collected during titration of L1–L3. The excitation wavelength was set at λ = 280 nm (both Trp and Tyr residues were excited).
bovine serum albumin (BSA), sequence (P02769 25-607): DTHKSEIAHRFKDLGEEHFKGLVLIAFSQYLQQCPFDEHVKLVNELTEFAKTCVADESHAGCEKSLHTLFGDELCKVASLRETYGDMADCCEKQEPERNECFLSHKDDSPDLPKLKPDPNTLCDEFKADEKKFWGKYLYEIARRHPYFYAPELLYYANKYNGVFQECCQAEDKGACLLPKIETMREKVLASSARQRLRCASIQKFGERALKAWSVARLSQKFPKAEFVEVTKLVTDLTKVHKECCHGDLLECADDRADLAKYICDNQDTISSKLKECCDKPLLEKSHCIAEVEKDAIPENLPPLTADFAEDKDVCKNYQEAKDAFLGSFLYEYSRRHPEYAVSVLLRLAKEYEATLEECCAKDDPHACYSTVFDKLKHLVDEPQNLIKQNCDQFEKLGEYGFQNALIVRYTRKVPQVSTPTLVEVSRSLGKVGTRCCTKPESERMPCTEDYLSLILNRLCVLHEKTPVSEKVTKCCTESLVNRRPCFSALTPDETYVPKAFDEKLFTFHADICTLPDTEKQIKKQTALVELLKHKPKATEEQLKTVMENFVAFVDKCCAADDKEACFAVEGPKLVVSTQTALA
To confirm this, the fluorescence data were further analyzed by the Stern–Volmer Equation (1) after correction due to the infer filter effect (2):(1) F0/F=1+kqτ[Q]=1+KSV (2) Fcorr=Fobs10^(Aex+Aem)/2 where F0 and F are the fluorescence intensities (after correction) of the protein and protein in the presence of L1–3, respectively, kq is the quenching rate constant, τ0 the average lifetime, [Q] is the L1–3 concentration, Ksv is the Stern–Volmer constant, and Fcorr, and Fobs are the corrected and observed fluorescence intensities, respectively. Aex and Aem are the absorbance values at excitation and emission wavelengths, respectively. A linear regression fit was used to calculate the value of the Stern–Volmer constant (Ksv). Then, assuming the average lifetime of the fluorophore in the excited state for a biomolecule as 10^−8 s, the quenching rate constant (kq) was computed. For dynamic quenching, the maximum scatters collision quenching rate constant for different quenchers with the biopolymers was reported to be 2 × 10^10 dm^3mol^−1s^−1 [55, 56]. […] Collisional quenching occurs when the excited-state fluorophore is deactivated by contact with some other molecule in solution (by collisions). […] This is a dynamic mechanism of quenching. The quenching constant characterizes the quenching mechanism. The maximum value for collisional quenching is 2 × 10^10 dm^3mol^−1s^−1. […] For further confirmation, measurements were made at, in addition to 297 K, temperatures 303 and 308 K. Experimental data points were fitted and analyzed using Equation (1).
Both for the complexes with BSA and with GGF, the binding constant (Kb) and the binding stoichiometry (n) were calculated. […] The values of Kb and n were calculated from the slope and the intercept of the log [(F0 − F)/F] versus log [Q] plot (Figure 2).
The forces involved in the interaction can be identified by measurement at different temperatures and then by thermodynamic analysis. The signs of the thermodynamic parameters identify the type of interactions. The enthalpy change (ΔH°), the entropic change (ΔS°), and the free energy change (ΔG°) were calculated from Equations (4) and (5):(4) […]=−ΔH^°/RT+ΔS^°/R (5) ΔG^°=ΔH^°−TΔS^°=−RTlnKb where Kb is the binding constant and R is the universal gas constant. To determine the thermodynamic parameters, the van’t Hoff plot was first conducted, i.e., the temperature dependence of the binding constant, according to Equation (4). The Kb values at the three temperatures were fitted by the linear regression method. The values of ΔH and ΔS were calculated from the slope and intercept at the fitted line. Next, the free energy change (ΔG°) was obtained from Equation (5).

The mark [1] stands for this setting: BSA, van't Hoff plot of Kb at 297, 303, 308 K.

In the case of “Lys-Dab-Dab-Gly-Orn-Pro-His-Lys-Arg-Lys-Dbt [L1]”, the “number of binding sites n” value is, setting by setting: (297 K, BSA) 0.80 ± 0.02; (303 K, BSA) 0.80 ± 0.04; (308 K, BSA) 0.80 ± 0.02. Further, the “Stern–Volmer constant Ksv” value runs as follows: (297 K, inner-filter corrected) 1.55 ± 0.07 × 10^5 dm^3mol^−1; (303 K) 1.21 ± 0.03 × 10^5 dm^3mol^−1; (308 K) 0.70 ± 0.06 × 10^5 dm^3mol^−1. Besides, the logKb reads like this: (297 K) 4.07 ± 0.07; (303 K) 3.95 ± 0.09; (308 K) 3.72 ± 0.15. Moreover, the “quenching rate constant kq” value is, setting by setting: (297 K) 1.55 ± 0.07 × 10^13 dm^3mol^−1s^−1; (303 K) 1.21 ± 0.03 × 10^13 dm^3mol^−1s^−1; (308 K) 0.70 ± 0.06 × 10^13 dm^3mol^−1s^−1. Besides, where the note is “BSA, from ΔH° − TΔS°”, the “ΔG°” value was −23 ± 1 kJmol^−1. Under setting [1], the “ΔH°” value is listed as −54 ± 2 kJmol^−1. Moreover, under setting [1], the “ΔS°” value is listed as −106 ± 3 Jmol^−1K^−1.

(Values after paper PMC9918186, “Interaction of Positively Charged Oligopeptides with Blood Plasma Proteins” (International Journal of Molecular Sciences, 2023).)
